Results: patent US12290513B2, “Therapeutic methods and compositions for treating movement disorders” (Vima Therapeutics, Inc., priority 2023, dated 2025)
Read-outs that look alike come from different tables or passages of the source.

What was measured:
[1] = Whole blood stability, human
Description: Procedures for blood Stability. • A. 398 μL of blood from each species was added to an incubation plate, which was pre-warmed at 37C for 15 minutes. • B. After the pre-incubation, 2 μL of working solution (test compounds or control compounds) was spiked to 398 μL of blood to reach a final concentration of 1 μM for test compounds and 5 μM for control compounds. The final concentration of organic solvents is 0.5%. The assays were performed in duplicate. • C. The reaction samples were incubated at 37C. • D. Aliquots of 50 μL were taken from the reaction samples at 0, 15, 30, 60 and 120 minutes. The reaction was stopped by the addition of 50 μL ultrapure water and 400 μL cold acetonitrile. • E. All samples were vortexed for 10 minutes, followed by centrifugation at 3,220 g for 40 minutes to precipitate proteins. 100 μL of the supernatant was then transferred to a new plate. The supernatant was diluted with ultrapure water as needed for detection by LC-MS/MS. Sample Analysis
Samples were analyzed by LC-MS/MS to measure the concentration of the test compounds.
All calculations were carried out using Microsoft Excel and according to standard analysis methods that are known in the art.

[2] = Liver microsome stability, human; conditions: for CLint scaled at 1 μM / microsomal CLint at 1 μM / half-life at 1 μM: liver microsomes; for CLint scaled at 1 μM: Scale-up CLint; for microsomal CLint at 1 μM: in vitro CLint; for half-life at 1 μM: in vitro t1/2, human liver microsomes
Description: (§1) For the liver microsome assay: • 1. The master solution was prepared according to Table 3. All liver microsome samples were purchased from BD Gentest.
(§2) • 2. Two separate experiments were performed as follows: (i) With Cofactors (NADPH): 25 μL of 10 mM NADPH was added to the incubations. […] The reaction was started with the addition of 2.5 μL of 100 μM control compound or test compound solutions. […] Aliquots of 30 μL were taken from the reaction solution at 0.5, 5, 15, 30 and 60 minutes. The reaction was stopped by the addition of 5 volumes of cold acetonitrile with IS (100 nM alprazolam, 200 nM caffeine and 100 nM tolbutamide). Samples were centrifuged at 3,220 g for 40 minutes. Aliquots of 100 μL of the supernatant was mixed with 100 μL of ultra-pure H2O and then used for LC-MS/MS analysis to detect the levels of the test compound. • 5. All calculations were carried out using Microsoft Excel and according to standard analysis methods that are known in the art.

[3] = Liver microsome stability, dog; conditions: for CLint scaled at 1 μM / microsomal CLint at 1 μM / half-life at 1 μM: liver microsomes; for CLint scaled at 1 μM: Scale-up CLint; for microsomal CLint at 1 μM: in vitro CLint; for half-life at 1 μM: in vitro t1/2, dog liver microsomes
Description: as §1, §2

[4] = Liver microsome stability, rat; conditions: for CLint scaled at 1 μM / microsomal CLint at 1 μM / half-life at 1 μM: liver microsomes; for CLint scaled at 1 μM: Scale-up CLint; for microsomal CLint at 1 μM: in vitro CLint; for half-life at 1 μM: in vitro t1/2, rat liver microsomes
Description: as §1, §2

[5] = Description: The resulting metabolites were analyzed by liquid chromatography-mass spectrometry, and metabolite peaks were detected and measured.
[6] = biological target: M4 (h) (antagonist radioligand) (Homo sapiens, UniProt P08173); conditions: at the tested concentration; negative values set to zero
[7] = biological target: M2 (h) (antagonist radioligand) (Homo sapiens, UniProt P08172); conditions: at the tested concentration; negative values set to zero
CYP1A2 = biological target: T1, CYP1A2 (Homo sapiens, UniProt P05177); assay: Incubation with recombinant CYP1A2
T1 sequence (P05177 1-516): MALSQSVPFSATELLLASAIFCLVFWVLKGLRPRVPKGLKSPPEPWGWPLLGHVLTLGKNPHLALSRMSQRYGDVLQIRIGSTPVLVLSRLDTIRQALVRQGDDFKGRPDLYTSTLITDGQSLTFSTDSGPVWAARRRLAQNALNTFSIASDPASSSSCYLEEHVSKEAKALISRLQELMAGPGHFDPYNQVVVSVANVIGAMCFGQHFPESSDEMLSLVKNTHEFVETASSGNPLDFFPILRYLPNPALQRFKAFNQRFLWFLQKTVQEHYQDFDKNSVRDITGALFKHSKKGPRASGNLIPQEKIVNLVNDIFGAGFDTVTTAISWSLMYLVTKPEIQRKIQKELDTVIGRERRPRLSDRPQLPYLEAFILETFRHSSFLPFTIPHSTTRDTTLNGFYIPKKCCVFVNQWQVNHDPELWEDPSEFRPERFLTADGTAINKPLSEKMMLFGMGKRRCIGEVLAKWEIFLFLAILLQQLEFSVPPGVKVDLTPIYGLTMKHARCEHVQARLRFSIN

CYP2B6 = biological target: T2, CYP2B6 (Homo sapiens, UniProt P20813); assay: Incubation with recombinant CYP2B6; conditions: for t1/2: unit not given
T2 sequence (P20813 1-491): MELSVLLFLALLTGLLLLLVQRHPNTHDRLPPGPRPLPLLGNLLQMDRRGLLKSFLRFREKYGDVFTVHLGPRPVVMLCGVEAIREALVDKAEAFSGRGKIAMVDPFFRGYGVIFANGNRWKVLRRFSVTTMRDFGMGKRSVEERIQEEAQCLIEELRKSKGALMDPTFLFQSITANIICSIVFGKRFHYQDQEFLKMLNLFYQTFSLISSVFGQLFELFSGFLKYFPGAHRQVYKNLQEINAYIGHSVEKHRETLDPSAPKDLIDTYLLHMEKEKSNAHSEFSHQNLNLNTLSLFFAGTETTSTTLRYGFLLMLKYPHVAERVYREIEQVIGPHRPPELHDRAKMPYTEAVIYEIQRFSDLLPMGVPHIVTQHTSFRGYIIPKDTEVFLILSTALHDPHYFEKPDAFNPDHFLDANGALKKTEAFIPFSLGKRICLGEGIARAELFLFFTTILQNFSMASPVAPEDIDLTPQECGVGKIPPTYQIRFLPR

CYP2C9 = CYP2C9 (Homo sapiens, UniProt P11712); assay: Incubation with recombinant CYP2C9; conditions: for t1/2: unit not given
CYP2E1 = CYP2E1 (Homo sapiens, UniProt P05181); assay: Incubation with recombinant CYP2E1; conditions: for t1/2: unit not given
CYP3A4 = CYP3A4 (Homo sapiens, UniProt P08684); assay: Incubation with recombinant CYP3A4
[8] = human, human liver microsomes, Example 15, Table 20
[9] = dog, dog liver microsomes, Example 15, Table 20
[10] = rat, rat liver microsomes, Example 15, Table 20

Sequence of CYP3A4 (P08684 whole entry): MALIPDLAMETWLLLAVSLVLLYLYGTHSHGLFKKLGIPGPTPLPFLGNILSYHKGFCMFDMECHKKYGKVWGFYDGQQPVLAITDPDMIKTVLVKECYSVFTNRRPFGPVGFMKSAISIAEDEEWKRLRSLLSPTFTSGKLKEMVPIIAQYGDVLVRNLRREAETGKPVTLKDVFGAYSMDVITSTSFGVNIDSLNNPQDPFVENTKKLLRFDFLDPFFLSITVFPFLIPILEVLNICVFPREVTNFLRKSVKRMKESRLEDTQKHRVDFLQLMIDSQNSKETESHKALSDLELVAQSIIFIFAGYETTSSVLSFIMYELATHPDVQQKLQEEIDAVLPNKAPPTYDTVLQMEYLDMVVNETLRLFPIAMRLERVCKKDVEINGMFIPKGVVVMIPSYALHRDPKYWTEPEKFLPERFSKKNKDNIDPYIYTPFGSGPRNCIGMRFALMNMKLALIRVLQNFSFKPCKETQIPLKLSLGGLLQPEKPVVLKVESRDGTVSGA
Sequence of CYP2E1 (P05181 whole entry): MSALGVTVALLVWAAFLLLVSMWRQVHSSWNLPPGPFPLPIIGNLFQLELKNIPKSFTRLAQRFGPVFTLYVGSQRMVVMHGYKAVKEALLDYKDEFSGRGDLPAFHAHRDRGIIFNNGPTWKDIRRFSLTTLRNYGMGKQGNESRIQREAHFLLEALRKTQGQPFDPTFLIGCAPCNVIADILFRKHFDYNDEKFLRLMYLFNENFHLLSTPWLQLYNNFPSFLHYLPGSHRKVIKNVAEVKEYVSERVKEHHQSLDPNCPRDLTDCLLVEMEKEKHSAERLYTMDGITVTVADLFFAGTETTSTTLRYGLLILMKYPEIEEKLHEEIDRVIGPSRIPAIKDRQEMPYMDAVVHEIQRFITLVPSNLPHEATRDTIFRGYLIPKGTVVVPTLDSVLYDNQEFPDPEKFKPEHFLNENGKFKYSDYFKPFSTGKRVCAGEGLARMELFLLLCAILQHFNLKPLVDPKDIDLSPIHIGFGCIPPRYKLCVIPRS
Sequence of CYP2C9 (P11712 whole entry): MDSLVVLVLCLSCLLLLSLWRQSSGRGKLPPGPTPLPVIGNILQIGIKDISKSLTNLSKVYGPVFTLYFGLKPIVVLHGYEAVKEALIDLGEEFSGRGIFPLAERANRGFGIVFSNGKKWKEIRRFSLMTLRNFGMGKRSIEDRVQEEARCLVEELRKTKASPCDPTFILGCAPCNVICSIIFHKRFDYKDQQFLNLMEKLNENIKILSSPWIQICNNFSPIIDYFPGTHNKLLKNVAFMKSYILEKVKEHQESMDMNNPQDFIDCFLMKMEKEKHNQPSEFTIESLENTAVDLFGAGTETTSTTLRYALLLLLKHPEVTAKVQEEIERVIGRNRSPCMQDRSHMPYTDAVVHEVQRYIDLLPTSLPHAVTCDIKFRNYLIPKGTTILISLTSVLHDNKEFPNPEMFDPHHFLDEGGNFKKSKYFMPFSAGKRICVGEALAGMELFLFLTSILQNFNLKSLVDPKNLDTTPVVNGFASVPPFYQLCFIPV
Sequence of M2 (h) (antagonist radioligand) (P08172 whole entry): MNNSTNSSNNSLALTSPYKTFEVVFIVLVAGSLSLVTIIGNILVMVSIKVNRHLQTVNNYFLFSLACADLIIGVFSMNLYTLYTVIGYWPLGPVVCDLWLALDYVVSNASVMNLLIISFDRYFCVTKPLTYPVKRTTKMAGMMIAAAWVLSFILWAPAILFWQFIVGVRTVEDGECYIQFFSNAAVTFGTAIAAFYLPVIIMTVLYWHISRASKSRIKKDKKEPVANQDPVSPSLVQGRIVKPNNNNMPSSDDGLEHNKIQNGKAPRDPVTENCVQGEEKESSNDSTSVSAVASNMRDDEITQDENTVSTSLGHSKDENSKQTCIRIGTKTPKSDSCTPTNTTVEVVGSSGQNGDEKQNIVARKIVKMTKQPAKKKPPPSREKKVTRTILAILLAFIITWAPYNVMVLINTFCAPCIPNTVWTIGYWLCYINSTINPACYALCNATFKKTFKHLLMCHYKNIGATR
Sequence of M4 (h) (antagonist radioligand) (P08173 whole entry): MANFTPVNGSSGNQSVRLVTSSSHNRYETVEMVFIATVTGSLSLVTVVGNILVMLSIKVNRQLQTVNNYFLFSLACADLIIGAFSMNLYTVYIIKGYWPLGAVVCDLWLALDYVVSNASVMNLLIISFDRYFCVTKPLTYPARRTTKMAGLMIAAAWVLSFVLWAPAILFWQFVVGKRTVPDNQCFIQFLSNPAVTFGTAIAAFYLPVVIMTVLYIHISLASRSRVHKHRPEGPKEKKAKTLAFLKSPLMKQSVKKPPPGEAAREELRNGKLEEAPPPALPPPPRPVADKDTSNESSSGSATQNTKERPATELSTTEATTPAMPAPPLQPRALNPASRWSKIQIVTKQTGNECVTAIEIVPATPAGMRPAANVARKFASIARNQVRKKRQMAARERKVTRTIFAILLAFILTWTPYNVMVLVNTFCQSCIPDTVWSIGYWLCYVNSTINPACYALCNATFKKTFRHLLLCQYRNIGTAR

| Remaining Percentages (%) 0 min ([1]; human whole blood, 37C) [%] | CLint scaled at 1 μM [2, 8] [mL/min/kg] | microsomal CLint at 1 μM [2, 8] [µL/min/mg] | half-life at 1 μM ([2]; human, Example 15, Table 20) [min] | CLint scaled at 1 μM [3, 9] [mL/min/kg] | microsomal CLint at 1 μM [3, 9] [µL/min/mg] | half-life at 1 μM ([3]; dog, Example 15, Table 20) [min] | CLint scaled at 1 μM [4, 10] [mL/min/kg] | microsomal CLint at 1 μM [4, 10] [µL/min/mg] | half-life at 1 μM ([4]; rat, Example 15, Table 20) [min] | signal, M4 (h) (antagonist radioligand) [6] [%] | signal, M2 (h) (antagonist radioligand) [7] [%] | CLint (CYP1A2) [µL/min/pmol] | Substrates of CYP1A2 (CYP1A2) | CLint (CYP2B6) [µL/min/pmol] | t1/2 (CYP2B6) | CLint (CYP2C9) [µL/min/pmol] | t1/2 (CYP2C9) | CLint (CYP2E1) [µL/min/pmol] | t1/2 (CYP2E1) | Structure (SMILES) | also measured |
| --- | --- | --- | --- | --- | --- | --- | --- | --- | --- | --- | --- | --- | --- | --- | --- | --- | --- | --- | --- | --- | --- |
| 100.00 | 20.4 | 19.9 | 69.7 | 318 | 180 | 7.69 | 5330 | 2190 | 0.63 | 98.88 | 98.95 | 0.00 | not metabolized | 0.00 | ∞ | 0.00 | ∞ | 0.00 | ∞ | O[C@@](CCN1CCCCC1)(c1ccccc1)C1CCCCC1 [(R)-THP, (R)-trihexyphenidyl] | t1/2 ([1]; human whole blood, 37C): ∞; CLint scaled at 1 μM ([2]; human, human liver microsomes, Table 5): 21.8 mL/min/kg; microsomal CLint at 1 μM ([2]; human, human liver microsomes, with NADPH, Table 5): 21.2 µL/min/mg; half-life at 1 μM ([2]; human, with NADPH, 1 μM, Table 5): 65.8 min; CLint scaled at 1 μM ([3]; dog, dog liver microsomes, Table 5): 257 mL/min/kg; microsomal CLint at 1 μM ([3]; dog, dog liver microsomes, with NADPH, Table 5): 146 µL/min/mg; half-life at 1 μM ([3]; dog, with NADPH, 1 μM, Table 5): 9.51 min; CLint scaled at 1 μM ([4]; rat, rat liver microsomes, Table 5): 5810 mL/min/kg; microsomal CLint at 1 μM ([4]; rat, rat liver microsomes, with NADPH, Table 5): 2380 µL/min/mg; half-life at 1 μM ([4]; rat, with NADPH, 1 μM, Table 5): 0.58 min; metabolites detected [5]: no (R)-THP metabolites were present at a significant level above parent molecule; Substrates of CYP1A2 (CYP1A2; listed as R): no R; Substrates of CYP3A4 (CYP3A4): Rac, R and S; half-life (CYP3A4; human): 30.7 min |
| 100.00 | – | – | – | – | – | – | – | – | – | – | – | – | – | – | – | – | – | – | – | C[C@@H](C[N+](C)(C)C)OC(N)=O.[Cl-] [(S)-BTC, (S)-bethanechol] | t1/2 ([1]; human, blood): ∞; Predicted Hepatic CLH ([2]; human liver microsomes, Table 5): 0.00 mL/min/kg; in vitro t1/2 ([2]; human, microsomes): ∞; Predicted Hepatic CLH ([3]; dog liver microsomes, Table 5): 0.00 mL/min/kg; in vitro t1/2 ([3]; dog, microsomes): ∞; Predicted Hepatic CLH ([4]; rat liver microsomes, Table 5): 0.00 mL/min/kg; in vitro t1/2 ([4]; rat, microsomes): ∞ |
| – | 58.9 | 57.3 | 24.2 | 429 | 244 | 5.72 | 1870 | 768 | 1.8 | 97.82 | 77.76 | 0.20 | is metabolized | 0.00 | ∞ | 0.00 | ∞ | 0.00 | ∞ | O[C@](CCN1CCCCC1)(c1ccccc1)C1CCCCC1 [(S)-THP, (S)-trihexyphenidyl] | metabolites detected ([5]; human): two metabolites 18 and 19 were detected at substantial levels; half-life (CYP1A2; human): 34.6 min; Substrates of CYP1A2 (CYP1A2; listed as S): S and Rac; Substrates of CYP3A4 (CYP3A4): Rac, R and S |
